This note sets out measurements from US12084436B2, “Heterocyclic compound” (Takeda Pharmaceutical Company Limited, priority 2019, dated 2024).

The first test addresses T1, HDAC6 enzyme (Homo sapiens, UniProt Q9UBN7).
T1 construct: prepared by transducing full length HDAC6 gene into Sf-9 insect cells; GST; purchased SignalChem; host or cells: Sf-9 insect cells
T1 sequence (Q9UBN7 1-1215): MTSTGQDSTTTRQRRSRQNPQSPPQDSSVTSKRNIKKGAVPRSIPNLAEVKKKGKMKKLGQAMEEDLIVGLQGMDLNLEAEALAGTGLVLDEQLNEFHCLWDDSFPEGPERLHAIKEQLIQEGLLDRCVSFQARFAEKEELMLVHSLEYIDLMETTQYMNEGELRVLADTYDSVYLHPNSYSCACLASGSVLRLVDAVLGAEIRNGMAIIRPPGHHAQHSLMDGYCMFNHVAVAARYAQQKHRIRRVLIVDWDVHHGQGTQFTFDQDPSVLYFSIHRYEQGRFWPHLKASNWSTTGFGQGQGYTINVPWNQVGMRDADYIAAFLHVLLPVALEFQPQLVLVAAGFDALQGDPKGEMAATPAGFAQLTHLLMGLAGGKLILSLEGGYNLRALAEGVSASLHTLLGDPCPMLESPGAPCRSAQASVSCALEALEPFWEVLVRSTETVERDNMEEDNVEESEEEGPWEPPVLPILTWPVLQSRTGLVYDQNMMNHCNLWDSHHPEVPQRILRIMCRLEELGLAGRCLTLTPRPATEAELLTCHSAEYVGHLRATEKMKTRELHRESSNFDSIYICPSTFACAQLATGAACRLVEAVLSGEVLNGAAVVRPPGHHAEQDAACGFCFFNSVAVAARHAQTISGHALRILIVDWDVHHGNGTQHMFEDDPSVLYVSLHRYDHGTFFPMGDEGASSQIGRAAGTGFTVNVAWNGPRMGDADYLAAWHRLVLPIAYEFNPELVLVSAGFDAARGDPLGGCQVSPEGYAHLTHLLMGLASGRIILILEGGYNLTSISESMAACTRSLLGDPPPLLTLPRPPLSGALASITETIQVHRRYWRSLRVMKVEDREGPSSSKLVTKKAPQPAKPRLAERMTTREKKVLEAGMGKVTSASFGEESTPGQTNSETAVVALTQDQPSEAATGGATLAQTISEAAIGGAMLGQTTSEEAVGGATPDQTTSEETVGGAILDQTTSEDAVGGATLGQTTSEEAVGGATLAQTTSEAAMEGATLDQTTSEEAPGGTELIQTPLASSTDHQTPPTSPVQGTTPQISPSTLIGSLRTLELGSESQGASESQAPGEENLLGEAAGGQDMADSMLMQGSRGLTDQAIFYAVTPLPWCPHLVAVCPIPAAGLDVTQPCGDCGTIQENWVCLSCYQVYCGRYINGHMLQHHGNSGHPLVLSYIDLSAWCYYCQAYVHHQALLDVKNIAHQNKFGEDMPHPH
Put plainly: HDAC6 enzyme inhibitory assay (HDAC-Glo I/II Assay kit, luminescence). In kind it is biochemical. The conditions noted are these: 10 μM test compound; wells without enzyme = 100% inhibition; 10 µM. Put shortly: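 Full-length human HDAC6, GST-purified from Sf-9 cells, was preincubated with compound for 60 min at room temperature in Tris-HCl pH 7.5 buffer with glutathione and Tween-20. Substrate-developer was then added, and luminescence was read after 20 min at room temperature. Inhibition was expressed relative to no-enzyme wells, taken as 100% inhibition.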
In the case of `CN1C(=O)c2cc(-c3nnc(C(F)F)o3)ccc2OC1(C)c1ccc(C#N)cc1` (single isomer, unassigned; isomer 2) [Example 37b, 4-{6-[5-(difluoromethyl)-1,3,4-oxadiazol-2-yl]-2,3-dimethyl-4-oxo-3,4-dihydro-2H-1,3-benzoxazin-2-yl}benzonitrile (optical isomer 2)], the “HDAC6 inhibitory rate (%) (10 μM)” value is on record as 100%.

Turning to `CN1C(=O)c2cc(-c3nnc(C(F)F)o3)ccc2CC1c1ccc(F)cc1` (single isomer, unassigned; isomer 2) [Example 42b, 7-[5-(difluoromethyl)-1,3,4-oxadiazol-2-yl]-3-(4-fluorophenyl)-2-methyl-3,4-dihydroisoquinolin-1(2H)-one (optical Isomer 2)], the “HDAC6 inhibitory rate (%) (10 μM)” value is recorded as 93%.

Staying with this test, now noted: 10 μM test compound; wells without enzyme = 100% inhibition; read-out: HDAC6 inhibitory rate (%) (10 μM).
Turning to `CN(Cc1cccc(-c2cnccn2)c1)N1Cc2ccc(-c3nnc(C(F)F)o3)cc2C1=O` [Example 53c, 6-[5-(difluoromethyl)-1,3,4-oxadiazol-2-yl]-2-(methyl{[3-(pyrazin-2-yl)phenyl]methyl}amino)-2,3-dihydro-1H-isoindol-1-one], the inhibition at 10 µM worked out at 101%.

As to `CN1C(=O)c2cc(-c3nnc(C(F)F)o3)ccc2CC1c1ccc(F)cc1` (centres unmarked) [Example 33b, 7-[5-(difluoromethyl)-1,3,4-oxadiazol-2-yl]-3-(4-fluorophenyl)-2-methyl-3,4-dihydroisoquinolin-1(2H)-one], the inhibition at 10 µM was determined as 100%.

`CCOC(=O)CCCN(C)N1Cc2ccc(-c3nnc(C(F)F)o3)cc2C1=O` [Example 50c, ethyl 4-[{6-[5-(difluoromethyl)-1,3,4-oxadiazol-2-yl]-1-oxo-1,3-dihydro-2H-isoindol-2-yl}(methyl)amino]butanoate]: the inhibition at 10 µM was 98%.

With `CC(C)(C)OC(=O)NN1Cc2ccc(-c3nnc(C(F)F)o3)cc2C1=O` [Example 3c, tert-butyl {6-[5-(difluoromethyl)-1,3,4-oxadiazol-2-yl]-1-oxo-1,3-dihydro-2H-isoindol-2-yl}carbamate], the inhibition at 10 µM was 99%.

Consider `CN1C(=O)c2cc(-c3nnc(C(F)F)o3)ccc2OC1(C)c1ccccc1` (centres unmarked) [Example 4b, 6-[5-(difluoromethyl)-1,3,4-oxadiazol-2-yl]-2,3-dimethyl-2-phenyl-2,3-dihydro-4H-1,3-benzoxazin-4-one], for which the inhibition at 10 µM stood at 99%.

For the molecule `Fc1cccc(Cn2ccnc2-c2cc(F)cc(-c3nnc(C(F)F)o3)c2)c1` [Example 44a, 2-(difluoromethyl)-5-(3-fluoro-5-{1-[(3-fluorophenyl)methyl]-1H-imidazol-2-yl}phenyl)-1,3,4-oxadiazole], the inhibition at 10 µM amounted to 99%.

As for `CN1C(=O)c2cc(-c3nnc(C(F)F)o3)ccc2OC1(C)c1ccccn1` (centres unmarked) [Example 12b, 6-[5-(difluoromethyl)-1,3,4-oxadiazol-2-yl]-2,3-dimethyl-2-(pyridin-2-yl)-2,3-dihydro-4H-1,3-benzoxazin-4-one], the inhibition at 10 µM stood at 98%.

As for `COc1cc(CN(C)N2Cc3ccc(-c4nnc(C(F)F)o4)cc3C2=O)cc(OC)c1` [Example 63c, 6-[5-(difluoromethyl)-1,3,4-oxadiazol-2-yl]-2-{[(3,5-dimethoxyphenyl)methyl](methyl)amino}-2,3-dihydro-1H-isoindol-1-one], the inhibition at 10 µM was determined as 101%.

`Cc1cccc(Cn2ccnc2-c2cc(-c3nnc(C(F)F)o3)ccn2)c1` [Example 83a, 4-[5-(difluoromethyl)-1,3,4-oxadiazol-2-yl]-2-{1-[(3-methylphenyl)methyl]-1H-imidazol-2-yl}pyridine]: the inhibition at 10 µM was determined as 100%.

Turning to `O=C1c2cc(-c3nnc(C(F)F)o3)ccc2CN1N(CCC1CCOCC1)Cc1ccc(F)cc1` [Example 21c, 6-[5-(difluoromethyl)-1,3,4-oxadiazol-2-yl]-2-{[(4-fluorophenyl)methyl][2-(oxan-4-yl)ethyl]amino}-2,3-dihydro-1H-isoindol-1-one], the inhibition at 10 µM was determined as 99%.

Turning to `O=C1c2cc(-c3nnc(C(F)F)o3)ccc2CN1NCc1cnn(C2CC2)c1` [Example 9c, 2-{[(1-cyclopropyl-1H-pyrazol-4-yl)methyl]amino}-6-[5-(difluoromethyl)-1,3,4-oxadiazol-2-yl]-2,3-dihydro-1H-isoindol-1-one], the inhibition at 10 µM is 97%.

On to `O=C(OCC(F)F)N(Cc1cnn(C2CC2)c1)N1Cc2ccc(-c3nnc(C(F)F)o3)cc2C1=O` [Example 13c, 2,2-difluoroethyl [(1-cyclopropyl-1H-pyrazol-4-yl)methyl]{6-[5-(difluoromethyl)-1,3,4-oxadiazol-2-yl]-1-oxo-1,3-dihydro-2H-isoindol-2-yl}carbamate], for which the inhibition at 10 µM was 99%.

In the case of `CN1C(=O)c2cc(-c3nnc(C(F)F)o3)ccc2OC1(C)c1ccccc1Cl` (centres unmarked) [Example 16b, 2-(2-chlorophenyl)-6-[5-(difluoromethyl)-1,3,4-oxadiazol-2-yl]-2,3-dimethyl-2,3-dihydro-4H-1,3-benzoxazin-4-one], the inhibition at 10 µM was determined as 98%.

On to `O=C1c2cc(-c3nnc(C(F)F)o3)ccc2CN1N(Cc1ccc(F)cc1)CC1CCOCC1` [Example 2c, 6-[5-(difluoromethyl)-1,3,4-oxadiazol-2-yl]-2-{[(4-fluorophenyl)methyl][(oxan-4-yl)methyl]amino}-2,3-dihydro-1H-isoindol-1-one], for which the inhibition at 10 µM worked out at 99%.

Consider `O=C1NN(c2ccc(F)cc2)Cc2ccc(-c3nnc(C(F)F)o3)cc21` [Example 2b, 7-[5-(difluoromethyl)-1,3,4-oxadiazol-2-yl]-3-(4-fluorophenyl)-3,4-dihydrophthalazin-1(2H)-one], for which the inhibition at 10 µM came to 100%.

For `FC(F)c1nnc(-c2ccnc(-c3nccn3Cc3ccccn3)c2)o1` [Example 3a, 4-[5-(difluoromethyl)-1,3,4-oxadiazol-2-yl]-2-{1-[(pyridin-2-yl)methyl]-1H-imidazol-2-yl}pyridine], the inhibition at 10 µM was 99%.

Take `CC1(c2ccc(F)cc2)Oc2ccc(-c3nnc(C(F)F)o3)cc2C(=O)N1CC(F)F` (centres unmarked) [Example 56b, 3-(2,2-difluoroethyl)-6-[5-(difluoromethyl)-1,3,4-oxadiazol-2-yl]-2-(4-fluorophenyl)-2-methyl-2,3-dihydro-4H-1,3-benzoxazin-4-one]: the inhibition at 10 µM is 100%.

For the molecule `Cc1noc(Cn2ccnc2-c2cc(F)cc(-c3nnc(C(F)F)o3)c2)n1` [Example 56a, 5-[(2-{3-[5-(difluoromethyl)-1,3,4-oxadiazol-2-yl]-5-fluorophenyl}-1H-imidazol-1-yl)methyl]-3-methyl-1,2,4-oxadiazole], the inhibition at 10 µM turned out to be 99%.

For the molecule `O=C1c2cc(-c3nnc(C(F)F)o3)ccc2CN1NCc1ccc(F)cc1` [Example 6c, 6-[5-(difluoromethyl)-1,3,4-oxadiazol-2-yl]-2-{[(4-fluorophenyl)methyl]amino}-2,3-dihydro-1H-isoindol-1-one], the inhibition at 10 µM was found to be 99%.

Regarding `O=C1COCC(Cc2ccccn2)N1c1cc(F)cc(-c2nnc(C(F)F)o2)c1` (centres unmarked) [Example 42a], the inhibition at 10 µM turned out to be 68%.

Consider `CN1C(=O)c2cc(-c3nnc(C(F)F)o3)ccc2OC1(C)c1ccc(F)cc1` (single isomer, unassigned; isomer 1) [Example 8b, 6-[5-(difluoromethyl)-1,3,4-oxadiazol-2-yl]-2-(4-fluorophenyl)-2,3-dimethyl-2,3-dihydro-4H-1,3-benzoxazin-4-one (Optical Isomer 1)], for which the inhibition at 10 µM is 100%.
